Test results taken from patent US20060029548A1, “Methods of diagnosing, monitoring and treating pulmonary diseases” (priority 2004, published 2006).
Values joined by “and” are separate entries in the source; they are usually repeats but may differ in a detail not shown here. Identical values can stand only once.

Assays:
[1] = system: human subjects (airway responsiveness, FEV1); experiment: Inhalation challenge test: airway responsiveness measured as change in FEV1 (PD20); type: in vivo; settings: for PD20 geometric mean: non-responders excluded; for PD20: individual subjects
Excerpt: (§1) The clinical study described in Examples 2-4 was randomized, double blind, crossover, and controlled. Each subject attended the laboratory on three occasions. Procedures on the initial screening visit included obtaining information about the study and a number of investigations in the following order: medical history, lung function, reversibility and skin prick testing. At visit 2 and 3, separated by 2-7 days, the subjects were subjected to either an ATP or AMP challenge in a randomized fashion such that, by the end of the study, each patient had been tested with both compounds. Before, immediately after, and 30 minutes after the challenge, lung function and Borg score for dyspnoea were determined, and symptoms other than dyspnoea were recorded.
In the clinical study described in Examples 2-4, spirometric tests were performed using a dry spirometer (Vitalograph Ltd., Buckingham, England) and the best value of the three expiratory manoeuvers was expressed as liters and percentage of the predicted.
(§2) For the tests described in Examples 2-4, ATP and AMP (Sigma, Gillingham, Dorset, England) were dissolved freshly in normal saline solution to produce a range of doubling concentrations from 0.227-929 umol/ml for ATP and from 0.138-1152 umol/ml for AMP and immediately used for bronchial challenge. The solutions were administered using a breath-activated dosimeter (Mefar, Bovezzo, Italy) with an output of 10 ul per inhalation [Prieto et al. (2003) Chest 123:993-997]. The subjects, while wearing a nose clip, inhaled (via a mouthpiece) five breaths of normal saline, followed by sequential doubling concentrations of either ATP or AMP from functional residual capacity to total lung capacity. FEV1 was measured from two minutes after the fifth inhalation of normal saline until there was a fall in FEV1 of ≧20% of its value recorded after saline inhalation or until maximal concentration of either ATP or AMP was inhaled. The provocative dose causing a 20% decrease in FEV1 (PD20) was calculated by interpolation of the logarithmic dose response curve.
All data from the analyses described in Examples 2-4 were performed with a software package (GraphPad Prism Software, Inc., USA). The significance of differences among groups was assessed by Student's t-test, and analysis of categorical variables was examined by Chi-square test. Pearson's correlation coefficient and linear regression analysis were used to analyze the relationship between the percentage decreases in FEV1 and Borg score. The PD20 values for ATP and AMP were logarithmically transformed to normalize their distribution and presented as geometric means. All other numerical variables were expressed as the mean±SEM and significance was defined as p<0.05.

[2] = system: human subjects (perception of dyspnoea); experiment: Borg score for dyspnoea before and after inhalation challenge; type: in vivo; set-up: key to ΔBorg (change in Borg score before and after challenge): Borg score after minus before challenge; 0–10 scale
Excerpt: as §1
The modified Borg scale used to quantitate dyspnoea in the clinical study described in Examples 2-4 was a category scale in which words describing degrees of breathlessness were anchored to numbers between 0 and 10. The subjects were asked to select a number whose corresponding words most appropriately described their perception of breathlessness. The change in dyspnoea was expressed as ΔBorg, which was the difference in Borg score before and after the challenge [Rutgers et al. (2000) Eur. Respir. J. 16:486-490; Burdon et al. (1982) Am. Rev. Respir. Dis. 126:825-828]. Terms and associated numbers used in assessing Borg score were as follows: 0, “nothing at all”; 0.5, “very, very slight”; 1, “very slight”; 2, “slight”; 3, “moderate”; 4, “somewhat severe”; 5, “severe”; 7, “very severe”; 9, “very, very severe (almost maximal)”; and 10, “maximal” [Burdon et al. (1982)].
as §2

[3] = system: human subjects (cough, throat irritation, sputum); experiment: Symptoms other than dyspnoea recorded after inhalation challenge; type: in vivo; settings: all subjects
Excerpt: as §1, §2

[4] = system: pulmonary RAR-containing afferent nerve fiber; experiment: Vagal activation experiments in dogs: action potentials in RAR-containing fibers; type: in vivo; settings: anesthetized dog, rapid bolus; ATP 6 μmol/kg, capsaicin 10 ug kg−1, analogs 0.75 umol kg−1
Method: (§3) The experiments described in Example 5 were performed essentially as described in Pelleg et al. [(1996) J. Physiol. 490(1):265-275] and U.S. Pat. No. 5,874,420, both of which are incorporated herein by reference in their entirety. In brief, they were performed on anesthetized (sodium pentobarbitone, 30 mg kg^−1 plus 3 mg kg^−1 h^−1, intravenous) dogs artificially ventilated with room air using a respirator. Arterial blood pH, PO2, PCO2, body temperature were maintained as described in U.S. Pat. No. 5,874,420. A peripheral vein was cannulated for the administration of physiological saline solution and maintenance doses of anesthetic. Catheters were introduced via the femoral vein and left atrial appendage and positioned in the right atrium and left atrium for the administration of test solutions. The chest was opened by a longitudinal sternotomy. The right cervical vagosympathetic trunk was exposed by a midcervical longitudinal section of the skin and careful dissection of neck muscles and connective tissues. The edges of the cut skin were elevated and secured to create a trough which was filled with warm (about 37° C.) mineral oil. A section of the vagosympathetic trunk was placed on a small plate of black Perspex™ and fine branches were separated from the main bundle by careful dissection using microsurgical tools and a dissecting microscope (Model F212, Jenopik Jena, GmbH, Germany).
Extracellular neural action potentials were recorded using a custom-made bipolar electrode that contained two platinum-iridium wires (1.25 cm×0.0125 cm) connected to a high-impedence first-stage differential amplifier (model AC8331, CW, Inc., Ardmore, Pa.) via a shielded cable. The output of the first-stage amplifier was fed into a second-stage differential amplifier (model BMA-831/C, CWE, Inc.). Isolated fibers were laid on the pair of platinum-iridium wires. Vagal C fibers with chemosensitive endings have a sparse irregular discharge which is not associated with cardiac or respiratory cycles. Confirmation of fiber type was obtained by: first monitoring the response to capsaicin (10 microg kg^−1, intra-right atrial bolus); second, monitoring the response to mechanical stimulation of the lungs using gentle probing with forceps as well as inflation of the lungs to 2-3 times the tidal volume; and third, determining the speed of conduction using a stimulating electrode positioned distal to the initial recording site. Nerve fibers with RAR on their pulmonary endings, spontaneously fire a brief (i.e., short lasting) volley of action potentials associated with peak tracheal pressure during each respiratory cycle.
[…] Volume controls consisted of either 5 ml+5 ml or 1 ml+3 ml physiological saline. All injections were performed in the same mode by the same person. To exclude involvement of baroreceptors in the recorded neural activity, the latter was monitored before and after a bolus of nitroglycerine (1 mg; intravenous).
The procedure described in Example 1 was used to measure action potentials in dog pulmonary fibers with RAR on their terminals following administration of various agents. RAR activation generated a brief volley of action potentials associated with each respiratory cycle that was seen before as well as after administration of ATP (FIG. 7). […] Thus ATP modified the activity of the RAR-containing fiber manifested in their transient loss of the rapid adaptability characteristic.

[5] = system: vagal C fiber; experiment: Vagal activation experiments in dogs: action potentials in vagal C fibers; type: in vivo; settings: anesthetized dog, rapid bolus; simultaneous recording with RAR-containing fiber
Method: as §3
Extracellular neural action potentials were recorded using a custom-made bipolar electrode that contained two platinum-iridium wires (1.25 cm×0.0125 cm) connected to a high-impedence first-stage differential amplifier (model AC8331, CW, Inc., Ardmore, Pa.) via a shielded cable. The output of the first-stage amplifier was fed into a second-stage differential amplifier (model BMA-831/C, CWE, Inc.). Isolated fibers were laid on the pair of platinum-iridium wires. Vagal C fibers with chemosensitive endings have a sparse irregular discharge which is not associated with cardiac or respiratory cycles. […]
ATP (3 umole kg^−1) and capsaicin (10 ug kg^−1) were administered as a rapid bolus into the right atrium (5 ml test solution+5 ml physiological saline flush). α,βmATP and β,γmATP were given as one low dose only (0.75 umol kg^−1) to avoid systemic side effects. […] To exclude involvement of baroreceptors in the recorded neural activity, the latter was monitored before and after a bolus of nitroglycerine (1 mg; intravenous). […]

[6] = system: pulmonary vagal afferent C fibers (P2X3/P2X2/3-receptors); experiment: Perfused nerve-lung preparation: action potentials in C fibers; type: cell-based, guinea pig; settings: C fibers, 30 min, α,βmATP 10 uM 1 ml bolus
Method: (§4) The method for the extracellular recording of the activity of vagal sensory neurons projecting to guinea pig lungs -has been described in detail previously in Canning et al. [(2004) J. Physiol. 557:543-545], which is incorporated herein by reference in its entirety. Briefly, male Hartley guinea pigs (100-200 g) were killed with CO2 inhalation and exsanguination. The blood from the pulmonary circulation was washed out by in situ perfusion with Krebs' bicarbonate solution (KBS; comprised of 118 mM NaCl, 5.4 mM KCl, 1.0 mM NaH2PO4, 1.2 mM MgSO4, 1.9 mM CaCl2, 25.0 mM NaHCO3, 11.1 mM dextrose, and gassed with 95% O2-5% CO2 at pH7.4). The KBS contained 3 uM indomethacin to reduce the indirect influence of tissue prostanoids on sensory fiber activity. Trachea and right lungs, having intact right-side extrinsic vagal innervation by the inclusion, e.g., of right jugular and nodose ganglia, were dissected from the exsanguinated guinea pigs and placed in a two-compartment tissue bath. The right nodose and jugular ganglia, along with the rostral vagus nerve, were placed into one compartment of the tissue bath whereas the lung and trachea were placed into the second compartment of the tissue bath. The two compartments were separately superfused with KBS (6 ml min^−1, at 37° C.).
(§5) The pulmonary artery and trachea were cannulated with polyethylene (PE) tubing and continuously perfused with KBS (4 ml min^−1 and 2 ml min^−1, respectively). […]
(§6) Once a mechanosensitive receptive field was identified, a brief [<1 millisecond (ms)] electrical stimulus was delivered by a small concentric electrode that was positioned over a discrete region of the mechanosensitive receptive field to determine the conduction velocity of the fiber. […] Conduction velocity was calculated by dividing the distance along the nerve pathway by the time between the shock artifact and the action potential evoked by electrical stimulation of the mechanosensitive receptive field. […]

[7] = system: pulmonary vagal afferent A fibers (P2X3/P2X2/3-receptors); experiment: Perfused nerve-lung preparation: action potentials in A fibers; type: cell-based, guinea pig; settings: A fibers, 30 min, α,βmATP 10 uM 1 ml bolus
Method: as §4, §5, §6

Compound: Nc1ncnc2c1ncn2[C@@H]1O[C@H](COP(=O)(O)O)[C@@H](O)[C@H]1O [AMP, adenosine 5′-monophosphate]
- patients with bronchoconstriction ([1]; 19 smoking subjects (seven healthy smokers, seven smokers at risk, five COPD)): 21%
- PD20 geometric mean ([1]; COPD (n = 7)): 210.6 µmol/mL
- patients who responded to challenge ([1]; COPD patients): 33%
- PD20 geometric mean (range) ([1]; all subjects who had airway responsiveness): 82.9 (0.9-576.0) umol/ml
- PD20 geometric mean ([1]; asthma (n = 10)): 113.5 µmol/mL
- response to challenge ([1]; healthy non-smokers, no change in FEV1 or reduction of less than 20%): negative
- subjects who responded to challenge ([1]; healthy smokers): 14%
- PD20 geometric mean ([1]; healthy smokers (n = 7)): 74.6 µmol/mL
- PD20 ([1]; COPD (n = 7)): 0.9 μmol/ml and >1152 μmol/ml (4×) and 72.0 μmol/ml and 168.4 μmol/ml
- PD20 ([1]; asthma (n = 10)): 576.0 µmol/mL and 3.46 µmol/mL and 54.7 µmol/mL and 559.3 µmol/mL and 461.7 µmol/mL and 176.0 µmol/mL and >1152 µmol/mL and 15.8 µmol/mL and 556.4 µmol/mL and 72.0 µmol/mL
- PD20 ([1]; healthy smokers (n = 7)): >1152 μmol/ml (6×) and 74.6 μmol/ml
- PD20 ([1]; non-smokers (n = 10), provocative dose causing 20% decrease in FEV1): >1152 µmol/mL
- PD20 ([1]; smokers at risk (n = 7)): >1152 μmol/ml (6×) and 576.0 μmol/ml
- PD20 geometric mean ([1]; non-smokers (n = 10)): >1152 µmol/mL
- subjects responsive to challenge ([1]; of the 40 subjects in the study): 32.5%
- patients who responded to challenge ([1]; patients with asthma): 90%
- ΔFEV1 (decrease in FEV1 as percentage of baseline FEV1) ([1]; patients with asthma): 22%
- subjects who responded to challenge ([1]; smokers at risk): 14%
- PD20 geometric mean ([1]; smokers at risk (n = 7)): 576.0 µmol/mL
- ΔBorg (change in Borg score before and after challenge) ([2]; COPD): 0.6
- Borg score after challenge (at PD20) ([2]; COPD patients): 0.8
- Borg score after challenge (at PD20) ([2]; patients with asthma): 2.5
- ΔBorg (change in Borg score before and after challenge) ([2]; patients with asthma): 2.3
- subjects who coughed after challenge [3]: 48%
- subjects who had sputum after challenge [3]: 10%
- subjects who had throat irritation after challenge [3]: 53%

Compound: COc1cc(CNC(=O)CCCC/C=C/C(C)C)ccc1O [capsaicin]
- effect on action potentials of RAR-containing fibers [4]: did not alter the firing pattern
- effect on action potentials of C fibers [5]: stimulated only the former

Compound: Nc1ncnc2c1ncn2[C@@H]1O[C@H](COP(=O)(O)OP(=O)(O)CP(=O)(O)O)[C@@H](O)[C@H]1O [β,γmATP, β,γ-methylene ATP]
- effect on action potentials of RAR-containing fibers [4]: acted similarly to ATP
- effect on action potentials of C fibers [5]: acted similarly to ATP

Compound: O=C(O)c1cc(C(=O)O)c(C(=O)N(Cc2cccc(Oc3ccccc3)c2)[C@H]2CCCc3ccccc32)cc1C(=O)O [A-317491, 5-({(3-phenoxybenzyl)[(1S)-1,2,3,4-tetrahydro-1-napththalenyl]amino}carbonyl)-1,2,4-benzenetricarboxylic acid]
- inhibition of the action of α,βmATP ([6]; antagonist 1 uM): no inhibitory effect
- reduction of response to α,βmATP ([6]; antagonist 10 uM): 62±5%
- inhibition of the action of α,βmATP ([7]; antagonist 1 uM): 59±12%
- reduction of response to α,βmATP ([7]; antagonist 10 uM): 88±5%
